Values of other authors in patent US20240173315A1 (OWP Pharmaceuticals, Inc., priority 2022, published 2024).
Where a name gives a salt, the structure may show the parent alone. Read-outs that look alike come from different tables or passages of the source.

Legend:
CYP3A4 = target: T1, CYP3A4 (Homo sapiens, UniProt P08684); details: in vitro
T1 construct: In vitro studies in human liver microsomes; from tissue; host or cells: human liver microsomes

[1] = oral dose
[2] = humans, oral

T1 sequence (P08684 whole entry): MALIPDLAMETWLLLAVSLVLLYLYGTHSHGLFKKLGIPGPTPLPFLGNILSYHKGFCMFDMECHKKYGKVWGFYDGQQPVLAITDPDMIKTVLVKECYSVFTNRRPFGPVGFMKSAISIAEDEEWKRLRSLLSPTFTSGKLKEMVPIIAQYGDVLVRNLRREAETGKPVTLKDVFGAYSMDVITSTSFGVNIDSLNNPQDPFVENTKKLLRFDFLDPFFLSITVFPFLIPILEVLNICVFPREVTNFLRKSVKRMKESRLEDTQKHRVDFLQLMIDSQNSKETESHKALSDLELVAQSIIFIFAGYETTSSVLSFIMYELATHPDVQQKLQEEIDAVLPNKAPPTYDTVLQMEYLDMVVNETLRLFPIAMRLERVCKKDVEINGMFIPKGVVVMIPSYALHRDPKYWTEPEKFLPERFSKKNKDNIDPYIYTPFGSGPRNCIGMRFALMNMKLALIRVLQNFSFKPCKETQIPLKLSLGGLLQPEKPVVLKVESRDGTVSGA

Row | SMILES | metabolism in human liver microsomes (CYP3A4) | excreted unchanged in the urine [1] | time after dosing at which peak plasma levels occur ([2]; taken on an empty stomach) | effect of food on amount of drug absorbed ([2]; taken shortly after ingestion of food) | time after dosing at which peak plasma levels occur ([2]; taken with food) [h]
1 | O=c1n(CCCN2CCN(c3cccc(Cl)c3)CC2)nc2ccccn12 [trazodone, 2-{3-[4-(3-chlorophenyl)piperazin-1-yl]propyl}[1,2,4]triazolo[4,3-a]pyridin-3(2H)-one] | metabolized, via oxidative cleavage, to an active metabolite, m-chlorophenvlpipera.zine (mCPP) by CYP3A4 | less than 1 % of an oral dose |  |  | 
2 | O=c1n(CCCN2CCN(c3cccc(Cl)c3)CC2)nc2ccccn12 [trazodone hydrochloride] |  |  | approximately one | increase | ~2
